Measured values as given in patent US20190134054A1, “ASSOCIATION OF ANTAGONISTS OF THE VASOPRESSIN RECEPTOR AND CALCIMIMETICS, COMPOSITION AND USE THEREOF FOR THE TREATMENT OF POLYCYSTIC KIDNEY” (UNIVERSITA' DEGLI STUDI DI BARI ALDO MORO, priority 2017, published 2019).
Entries after “also recorded” stand apart in the source; their conditions may differ.

Columns and labels:
[1] = test system: intracellular calcium levels; experiment: Intracellular calcium levels after tolvaptan; format: cell-based; conditions: treatment with Tolvaptan; CTR=67.06±2.6 nM, P<0.0001
Experimental: The treatment with Tolvaptan determines an increase of the intracellular calcium levels (TLV=99.6±4.1 nM; CTR=67.06±2.6 nM, P<0.0001).

V2 receptor = molecular target: T1, V2 receptor (Canis lupus familiaris, UniProt O77808); experiment: dDAVP-induced intracellular cAMP levels (1/netFRET) in MDCK cells; format: cell-based, canine; conditions: dDAVP+TLV vs. dDAVP and CTR
T1 construct: canine kidney cells MDCK endogenously expressing the V2 receptor; endogenous in cells; host or cells: MDCK (canine kidney cells)
Source text: The effects of the antagonists of the vasopressin receptor on the concentration of intracellular cAMP have been studied in the canine kidney cells MDCK endogenously expressing the V2 receptor.
Such a reduction of the cAMP levels has been detected through 1/netFRET.
Thus, the treatment with Tolvaptan leads to a reduction of the intracellular cAMP levels. The cAMP levels have been measured through 1/netFRET.

mTOR signaling pathway [2] = experiment: mTOR signaling: S6 ribosomal protein phosphorylation, ciPTEC-PC1Pt cells; format: cell-based, human; conditions: 10 μM
Source text: (§1) The experiments described from Example 1 to Example 5 have been carried out on i) ciPTEC human kidney cells of the proximal tubule isolated from healthy subjects (ciPTECwt), ii) on the same cells silenced for the gene encoding the polycystin 1 (ciPTE-PC1KO) and iii) on ciPTEC cells isolated from patients affected by ADPKD (ciPTEC-PC1Pt).
(§2) In the present example, the activity of mTOR has been studied by detecting the phosphorylation levels of the S6 ribosomal protein.
(§3) By treating the aforementioned cells with the calciomimetic tecalcet at the concentration of 10 μM, the activity of mTOR is reduced, thus decreasing the S6 phosphorylation.

mTOR signaling pathway [3] = experiment: mTOR signaling: S6 ribosomal protein phosphorylation, ciPTEC-PC1KO cells; format: cell-based, human; conditions: 10 μM
Source text: as §1, §2, §3

ciPTEC-PC1KO cells [4] = experiment: Intracellular calcium levels after tecalcet (Fura 2), ciPTEC-PC1KO cells; format: cell-based, human; conditions: 10 μM, n=47
Experimental: as §1
(§4) Three types of the aforementioned cellular lines have been treated with 10 μM calciomimetic tecalcet, and the result is that the ciPTEC-PC1Pt cells, isolated from patients suffering from the polycystic kidney disease, respond similarly to the ciPTECwt cells to the stimulation with the calciomimetic, thus leading to an increase of intracellular calcium levels (FIG. 4). Such intracellular calcium levels, in the present example, have been detected thanks to the colorant Fura 2 that is sensitive to calcium.
(§5) The ciPTEC-PC1Pt cells respond similarly to the ciPTECwt cells to the stimulation with NPS-R568 calciomimetic, also called tecalcet, at a concentration of 10 μM. […] The intracellular calcium levels have been measured through the colorant Fura 2 that is sensitive to calcium.

ciPTEC-PC1Pt cells [5] = experiment: Intracellular calcium levels after tecalcet (Fura 2), ciPTEC-PC1Pt cells; format: cell-based, human; conditions: 10 μM, ciPTEC-PC1Pt cells (ADPKD patients), n=30
Experimental: as §1, §4, §5

ciPTECwt cells = experiment: Intracellular calcium levels after tecalcet (Fura 2), ciPTECwt cells; format: cell-based, human; conditions: 10 μM, n=40
Experimental: as §1, §4, §5

ciPTEC-PC1KO cells [6] = experiment: Intracellular cAMP levels after tecalcet (FRET), ciPTEC-PC1KO cells; format: cell-based, human; conditions: 10 μM, 1/netFRET
Source text: as §1
(§6) Such cAMP levels have been measured through FRET.
(§7) The cAMP levels have been measured through 1/netFRET.

ciPTEC-PC1Pt cells [7] = experiment: Intracellular cAMP levels after tecalcet (FRET), ciPTEC-PC1Pt cells; format: cell-based, human; conditions: 10 μM, 1/netFRET
Source text: as §1, §6, §7

T1 sequence (O77808 whole entry): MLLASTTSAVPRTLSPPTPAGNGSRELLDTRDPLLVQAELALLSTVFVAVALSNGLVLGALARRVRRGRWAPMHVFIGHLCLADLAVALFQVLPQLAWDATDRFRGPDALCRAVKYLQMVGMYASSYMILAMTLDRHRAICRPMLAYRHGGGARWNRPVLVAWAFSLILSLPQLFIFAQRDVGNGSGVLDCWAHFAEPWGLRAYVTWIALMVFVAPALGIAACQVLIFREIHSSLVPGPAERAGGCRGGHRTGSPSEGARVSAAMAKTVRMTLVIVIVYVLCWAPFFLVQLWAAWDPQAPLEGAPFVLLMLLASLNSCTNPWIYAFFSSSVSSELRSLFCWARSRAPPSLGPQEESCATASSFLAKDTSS

SMILES | intracellular calcium levels [1] [nM] | cAMP levels induced by vasopressin (dDAVP) (V2 receptor) | S6 phosphorylation levels (mTOR activity) (mTOR signaling pathway [2]) | S6 phosphorylation levels (mTOR activity) (mTOR signaling pathway [3]) | intracellular calcium levels, response vs. ATP 100% (ciPTEC-PC1KO cells [4]) [%] | intracellular calcium levels, response vs. ATP 100% (ciPTEC-PC1Pt cells [5]) [%] | intracellular calcium levels, response vs. ATP 100% (ciPTECwt cells) [%] | basal intracellular cAMP levels (ciPTEC-PC1KO cells [6]) | basal intracellular cAMP levels (ciPTEC-PC1Pt cells [7])
Cc1ccccc1C(=O)Nc1ccc(C(=O)N2CCCC(O)c3cc(Cl)ccc32)c(C)c1 (stereo not drawn) [Tolvaptan] | 99.6 ± 4.1 | comparable to those of the control | – | – | – | – | – | – | –
COc1cccc([C@@H](C)NCCCc2ccccc2Cl)c1 [tecalcet] | – | – | reduces the phosphorylation of S6 | comparable levels to those observed in the ciPTECwt cells; also recorded: reduces the phosphorylation of S6 | 24.32±2.59 | 29.51±3.93 | 90.68±2.47 | reduces the basal cAMP levels | reduces the basal cAMP levels
